Assay results from PMC10451629, “Evaluation of the Effects of Heteroaryl Ethylene Molecules in Combination with Antibiotics: A Preliminary Study on Control Strains” (Antibiotics, 2023).
Where “and” joins values, the source holds several entries; their conditions need not be identical. Equal entries are not always repeated. Where two headings read alike, the source gives them in different places.

Legend:
[1] = test system: CaCo-2 (ATCC HTB-37) colon–rectal cancer cell line; assay: MTT cytotoxicity assay on CaCo-2 cells; format: cell-based, human; settings: Homo sapiens, CaCo-2 cell line, MTT
Experimental: To fully assess the biological activity of the new molecules, they were tested at different concentrations on the CaCo-2 (ATCC HTB-37) colon–rectal cancer cell line. These human cancer cells were exposed to compound solutions ranging in concentration from 100 µM to 0.01 µM. As a reference compound for these assays, we used 5-Fluorouracil (5-FU), a pyrimidine analog from the antimetabolite family.
The MTT assay was also performed for the selected antibiotics to evaluate the effect of their combined treatment with PB4.
To evaluate the effect of the heteroaryl ethylene compounds and the antibiotics, an MTT ([3-(4,5-dimethylthiazol-2-yl)-2,5-diphenyltetrazolium bromide]) assay was performed as previously described. […] Both concentrations were also tested in combination with PB4 0.2 µM. All antibiotics were provided by Thermo Scientific^TM Oxoid^TM, Basingstoke, UK. Twenty-four hours after plating, the cells were treated with 20 μL of each solution. Untreated cells were used as controls. […] The IC50 values were calculated by nonlinear regression analysis using GraphPad Prism 6.0 software.

[2] = test system: CaCo2 colon-rectal cancer cell line; set-up: method as in in-house dataset; Log(IC50) 48h: unit not given here; settings: in-house dataset previously tested by the authors' groups, ref in-house dataset, cited from earlier work; for IC50: 48h
[3] = test system: S. aureus ATCC29213; settings: QSAR dataset, in-house database, previously tested, ref Unpublished results; cited from earlier work
[4] = test system: K. pneumoniae ATCC 700603; assay: Broth microdilution MIC; format: cell-based, Klebsiella pneumoniae; settings: Klebsiella pneumoniae, ATCC700603, K. pneumoniae ATCC 700603; substance alone; read-out: MIC
[5] = test system: S. aureus ATCC 12598; assay: Broth microdilution MIC; format: cell-based, Staphylococcus aureus; settings: Staphylococcus aureus, ATCC12598, S. aureus ATCC 12598; substance alone; read-out: MIC
[6] = test system: S. aureus ATCC BAA-1556 USA300; assay: Broth microdilution MIC; format: cell-based, Staphylococcus aureus; settings: Staphylococcus aureus, S. aureus ATCC BAA-1556 USA300; substance alone
[7] = test system: A. baumannii ATCC 17978; assay: Broth microdilution MIC; format: cell-based; settings: Acinetobacter baumannii, ATCC17978, substance alone
[8] = test system: S. aureus ATCC 29213; assay: Broth microdilution MIC; format: cell-based; settings: Staphylococcus aureus, ATCC29213, S. aureus ATCC 29213; substance alone; read-out: MIC
[9] = test system: P. aeruginosa ATCC 27853; assay: Broth microdilution MIC; format: cell-based, Pseudomonas aeruginosa; settings: Pseudomonas aeruginosa, ATCC27853, P. aeruginosa ATCC 27853; substance alone; read-out: MIC
[10] = test system: E. coli ATCC 25922; assay: Broth microdilution MIC; format: cell-based; settings: Escherichia coli, ATCC25922, substance alone, read-out: MIC
[11] = test system: S. enterica ATCC 14028; assay: Broth microdilution MIC; format: cell-based; settings: Salmonella enterica, ATCC14028, substance alone
[12] = test system: E. faecalis ATCC 29212; assay: Broth microdilution MIC; format: cell-based, Enterococcus faecalis; settings: Enterococcus faecalis, ATCC29212, E. faecalis ATCC 29212; substance alone; read-out: MIC
[13] = Caco-2, 24 h, 24 h of treatment, read-out: IC50 at 24 h
[14] = Caco-2, 48 h, 48 h of treatment, read-out: IC50 at 48 h

| SMILES | IC50 [2] | Log(IC50) 48h [2] | also measured |
| --- | --- | --- | --- |
| O=c1[nH]cc(F)c(=O)[nH]1 [5-FU, 5-Fluorouracil] | – | – | IC50 [1, 13]: ~27 µM; IC50 [1, 14]: 12.9 µM |
| C[n+]1c(/C=C/c2ccc(-c3ccc(N4CCCCC4)s3)s2)ccc2ccccc21 [BC1] | 20 µM | 1.30 | – |
| CCCCN(CCCC)c1ccc(-c2ccc(/C=C/c3ccc(C(=O)O)c[n+]3C)s2)s1 [BCG3] | 8 µM | 0.90 | – |
| CC[n+]1ccc2c(c1)CCC/C2=C\c1ccc(N(C)C)cc1 [BCM3] | 1.35 µM | 0.13 | MIC [3]: 64 µg/mL |
| CN(C)c1ccc(/C=C/c2cccc[n+]2C)cc1 [BCM4] | – | – | MIC [4]: > 128 µg/mL and ≥ 350 µM; MIC [5]: 64 µg/mL and 175 µM; MIC [6]: 64 µg/mL and 175 µM; MIC [7]: ≥ 128 µg/mL and ≥ 350 µM; MIC [8]: 128 µg/mL and 350 µM; MIC [9]: > 128 µg/mL and ≥ 350 µM; MIC [10]: ≥ 128 µg/mL and ≥ 350 µM; MIC [11]: > 128 µg/mL and ≥ 350 µM; IC50 [1, 13]: 0.72 µM; IC50 [1, 14]: 0.1 µM; MIC [12]: ≥ 128 µg/mL and ≥ 350 µM |
| C[n+]1c(/C=C/c2cc(Cl)ccc2O)cccc1/C=C/c1cc(Cl)ccc1O [BCM12] | – | – | MIC [3]: > 128 µg/mL |
| CC[n+]1ccc2c(c1)CCC/C2=C\c1ccccc1O [BCNAc1] | – | – | MIC [3]: > 128 µg/mL |
| C[n+]1ccccc1/C=C/c1ccc2ccc3c4c2c1C=CC4C=CC3 (stereo not drawn) [GC VI 3] | 0.9 µM | -0.0458 | – |
| C[n+]1c(/C=C/c2ccc(N(c3ccccc3)c3ccccc3)cc2)ccc2ccccc21 [GC VI 14] | 4 µM | 0.602 | – |
| CN(C)c1ccc(/C=C/c2cc[n+](C)cc2)cc1 [GC VI 17] | 8 µM | 0.903 | – |
| CN(C)c1ccc(/C=C/C=C/c2cc[n+](C)cc2)cc1 [GC VI 45] | 16 µM | 1.20 | – |
| C[n+]1c(/C=C/c2ccnc(-c3cc(/C=C/c4ccc5ccccc5[n+]4C)ccn3)c2)ccc2ccccc21 [GC VI 71] | 51.2 µM | 1.71 | – |
| CCOC(=O)C(C#N)c1ccc(/C=C/c2cc[n+](C)cc2)n1C (stereo not drawn) [GC VII 16] | 70 µM | 1.85 | – |
| C[n+]1ccccc1/C=C/c1ccc2ccccc2c1 [GC VII 46] | 5.5 µM | 0.740 | – |
